This note sets out measurements from patent US20050282818A1, “Ubiquitin ligase inhibitors” (Rigel Pharmaceuticals, Inc., priority 2004, published 2005).

pIC50: −log10 of the molar value. Read-outs that look alike come from different tables or passages of the source.

The subject of experiment [1] is A549 cells. As to the kind of experiment: Cell proliferation PAD assay, A549. It counts as cell-based. Particulars: Homo sapiens, 48 hours. A digest of the protocol: (§1)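 Cells plated at 2,000/well; compounds added 24 h later as 6.3-fold dilutions from a 10 mM master stock, diluted 500-fold into wells, in duplicate. After 48 h at 37 °C, 5% CO2, cells were formamide-fixed, DAPI-stained and imaged to count live, apoptotic and dead cells.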

The test system of experiment [2] is H1299 cells. The experiment is described as follows: Cell proliferation PAD assay, H1299. It counts as cell-based. Particulars: Homo sapiens, 48 hours. Summed up: as §1
In experiment [3] the test system is DLD-1 cells. The experiment is described as follows: Cell proliferation PAD assay, DLD-1. It counts as cell-based. The conditions noted are these: Homo sapiens, DLD1 cells, 6pt, 48 hours. An excerpt:
(§2) Table 3 illustrates the inhibitory activity of the compounds of the invention determined by the PAD assay described above in a number of cell types. Apoptosis was not
(§3) Cell lines used are available from American Type Culture Collection (ATCC), for example, cell cultures containing A549 (ATCC# CCL-185), HeLa (ATCC# CCL-2), HCT116 ATTC# CCL-247), and H1299 (ATCC# CRL-5803) cells were maintained in T175 flasks following the ATCC recommended media and handling procedures. […] A 20,000 cells/ml solution was made for plating. Cells were plated in black Packard 96 well plates by placing 100 μl per well (2,000 cells per well). […] The definitions of the cell types used are as follows: A549 is lung carcinoma; HI 299 is non-small cell lung carcinoma; HI 155 is non-small cell lung carcinoma; AsPC-1 is pancreatic adenocarcinoma; Caov-3 is ovarian adenocarcinoma; COLO 205 is colorectal adenocarcinoma; DLD-1 colorectal adenocarcinoma; HCT116 is colorectal carcinoma; DU 145 is prostate carcinoma; ES-2 is ovarian clear cell carcinoma; H460 is large cell lung carcinoma; HELA is cervical adenocarcinoma; MIA PaCa-2 is pancreatice carcinoma; OVCAR-3 is ovarian adenocarcinoma; OVCAR8 is ovarian carcinoma; PC3 is prostate adenocarcinoma; SK-OV-3 is ovarian adenocarcinoma; SU86.86 is pancreatic carcinoma; TOV-21G is avarian clear cell carcinoma; U2OS is bone osteosarcoma; is ASPC-I is pancreatic adenocarcinoma; BXPC-3 is pabcreatic adenocarcinoma; HL60 is promyeloblast promyelocytic leukemia; K562 is bone marrow chronic myelogenous leukemia; L1210 is mouse lymphocytic leukemia; MOLT3 is T lymphoblast acute lymphoblastic leukemia; MOLT4 is T lymphoblast acute lymphoblastic leukemia; SW620 is colorectal adenocarcinoma; THP-1 is monocyte acute monocytic leukemia; U937 is histiocytic lymphoma; and UACC-257 is melanoma.
(§4) Compounds and additional media were added 24 hours after cell plating. A compound master plate was created with concentrations 500 times greater than the final concentration added to the cells. All compound testing was done in duplicate using 6.3 fold dilutions starting with 10 mM. All outside wells (and 4 internal wells) were DMSO controls. Taxol and at least one additional control were run on all plates. Three microliters of the compound master plate were added to deep well blocks containing 750 μl of RPMI media. One hundred microliters were transferred from the compound/media deep well blocks to the plated cells resulting in a 500 fold dilution of the compounds. Cells were grown at 37° C., 5% CO2 for 48 hours.
(§5) Cells to be analyzed by photography were fixed and stained. One hundred microliters of media were removed and 100 μl of 9.3% formamide was added to each well. Plates were left on the benchtop for 45 minutes. A staining solution containing 1.55 μl of 1 mg/ml DAPI added to 18.75 ml PBS was warmed for 15 minutes at 37° C. The cells were aspirated prior to washing with 100 μl of PBS. Seventy microliters of PBS were aspirated and 170 μl of the DAPI solution were added to each well of fixed cells. Plates were left at room temperature for one hour then aspirated and washed twice with 100 μl of PBS. The stained cells were left at 4° C. for a minimum of 16 hours before photographic analysis with Array Scan II (Cellomics). Analysis of the photographic images to determine numbers of live cells (proliferation), apoptotic cells and dead cells, were according to the methods described in U.S. Utility patent application Ser. No. 10/652,440, which incorporated herein in its entirety.

Experiment [4] has as its system HCT116 cells. The experiment is described as follows: Cell proliferation PAD assay, HCT116. It counts as cell-based. Particulars: Homo sapiens, 48 hours.
From the text: as §2, §3, §4, §5

For experiment [5], the system named is HELA cells. The experiment is described as follows: Cell proliferation PAD assay, HeLa. Particulars: Homo sapiens, 6pt, 48 hours. It counts as cell-based.
From the text: as §2, §3, §4, §5

The subject of experiment [6] is U2OS cells. As to the kind of experiment: Cell proliferation PAD assay, U2OS. It counts as cell-based. Particulars: Homo sapiens, 6pt, 48 hours.
From the text: as §2, §3, §4, §5

Experiment [7] addresses T1, TRAF6/Uev1A/Ubc13 (Homo sapiens, UniProt Q9Y4K3).
T1 sequence (Q9Y4K3 1-522): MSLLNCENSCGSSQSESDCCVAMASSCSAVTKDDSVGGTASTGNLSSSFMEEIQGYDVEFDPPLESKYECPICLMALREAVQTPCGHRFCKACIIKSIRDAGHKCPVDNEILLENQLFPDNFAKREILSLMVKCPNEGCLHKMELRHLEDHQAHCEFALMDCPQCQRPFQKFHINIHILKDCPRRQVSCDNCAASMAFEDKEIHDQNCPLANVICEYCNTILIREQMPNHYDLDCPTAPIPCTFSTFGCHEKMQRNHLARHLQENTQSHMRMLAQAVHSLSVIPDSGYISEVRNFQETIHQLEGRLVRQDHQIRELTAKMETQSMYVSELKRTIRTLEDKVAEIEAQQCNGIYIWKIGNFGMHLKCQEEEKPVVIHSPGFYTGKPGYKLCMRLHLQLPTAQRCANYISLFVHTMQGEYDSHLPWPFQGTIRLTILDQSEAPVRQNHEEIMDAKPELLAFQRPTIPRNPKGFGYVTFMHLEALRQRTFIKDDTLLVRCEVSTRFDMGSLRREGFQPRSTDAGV
The experiment is described as follows: TRAF6/Uev1A/Ubc13 plate-based ubiquitin ligase assay. It counts as biochemical. Summed up:
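Ligase activity was read as luminescence from anti-Flag/HRP detection of Flag-ubiquitin bound to casein-blocked Ni-plates alongside His-ubiquitin after a 1 h room-temperature reaction. Buffer: 62.5 mM Tris pH 7.5, 6.25 mM MgCl2, 1.0 mM DTT, 2 μM ATP; E1, Uev1a/Ubc13 and TRAF6 added last to start. IC50s derived across compound concentrations.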

Experiment [8] relates to OVCAR8 cells. The experiment is described as follows: Cell proliferation PAD assay, OVCAR8. It counts as cell-based. Particulars: Homo sapiens, OVCAR-8, 6pt, 48 hours. As for the experimental part:
as §3
(§6) Compounds and additional media were added 24 hours after cell plating. […] All compound testing was done in duplicate using 6.3 fold dilutions starting with 10 mM. […] Taxol and at least one additional control were run on all plates. Three microliters of the compound master plate were added to deep well blocks containing 750 μl of RPMI media. One hundred microliters were transferred from the compound/media deep well blocks to the plated cells resulting in a 500 fold dilution of the compounds. Cells were grown at 37° C., 5% CO2 for 48 hours.
as §5

The test system of experiment [9] is UACC-257 cells. The experiment is described as follows: Cell proliferation PAD assay, UACC-257. It counts as cell-based. The conditions noted are these: Homo sapiens, UACC257 cells, 6pt, 48 hours. As for the experimental part:
as §3, §6, §5

Experiment [10] has as its system COLO 205 cells. The experiment is described as follows: Cell proliferation PAD assay, COLO 205. It counts as cell-based. The conditions noted are these: Homo sapiens, Colo205 cells, 9pt, 48 hours.
From the text: as §2
(§7) Cell lines used are available from American Type Culture Collection (ATCC), for example, cell cultures containing A549 (ATCC# CCL-185), HeLa (ATCC# CCL-2), HCT116 ATTC# CCL-247), and H1299 (ATCC# CRL-5803) cells were maintained in T175 flasks following the ATCC recommended media and handling procedures. […] A 20,000 cells/ml solution was made for plating. Cells were plated in black Packard 96 well plates by placing 100 μl per well (2,000 cells per well). […]
(§8) Cells to be analyzed by photography were fixed and stained. […]

Experiment [11] relates to MIA PaCa-2 cells. As to the kind of experiment: Cell proliferation PAD assay, MIA PaCa-2. It counts as cell-based. The conditions noted are these: Homo sapiens, Miapaca2 cells, 9pt, 48 hours.
From the text: as §2, §7, §8

Where [12] appears, read: NCI-H1299, 3pt, read-out: H1299 3pt.
The mark [13] stands for this setting: NCI-H1299, 6pt, read-out: H1299 6pt.
Setting [14] is: HCT-116, 6pt, read-out: HCT116 6pt.

In the case of `O=S(=O)(Nc1cccc2cccnc12)c1cccc2nonc12` [compound 64, N-quinolin-8-yl-2,1,3-benzoxadiazole-4-sulfonamide], the pIC50 is 4.70 to 6.00 in [1] (3pt, read-out: A549 3pt); over 6.00 in [1] (6pt, read-out: A549 6pt); 4.70 to 6.00 in [2] (setting [12]); over 6.00 in experiment [2] (setting [13]); over 6.00 in [3]; 4.70 to 6.00 in experiment [4] (setting [14]). In addition, the pIC50 in experiment [5] was 4.70 to 6.00; in [6] it was over 6.00.

As for `O=C(CN1CCN(c2ccc([N+](=O)[O-])c3nonc23)CC1)N1CCOCC1` [compound 107, 4-[4-(2-morpholin-4-yl-2-oxoethyl)piperazin-1-yl]-7-nitro-2,1,3-benzoxadiazole], the pIC50 is at most 4.70 in experiment [7]; at most 4.70 in experiment [1] (3pt, read-out: A549 3pt); at most 4.70 in experiment [1] (6pt, read-out: A549 6pt); at most 4.70 in experiment [2] (setting [12]); at most 4.70 in [2] (setting [13]); at most 4.70 in experiment [8]. The molecule further had a pIC50 in experiment [9] of at most 4.70.

As for `O=S(=O)(c1ccc(F)c2nonc12)N1CCN(c2ncc(C(F)(F)F)cc2Cl)CC1` [compound 164, 4-({4-[3-chloro-5-(trifluoromethyl)pyridin-2-yl]piperazin-1-yl}sulfonyl)-7-fluoro-2,1,3-benzoxadiazole], the pIC50 in [7] was over 6.00; in [1] (3pt, read-out: A549 3pt), 4.70 to 6.00; in [1] (6pt, read-out: A549 6pt), 4.70 to 6.00; in [2] (setting [12]), 4.70 to 6.00; in [2] (setting [13]), 4.70 to 6.00; in experiment [6] it was at most 4.70.

As for `O=S(=O)(c1ccc(Cl)c2nonc12)N1CCN(c2ncc(C(F)(F)F)cc2Cl)CC1` [compound 169, 4-chloro-7-({4-[3-chloro-5-(trifluoromethyl)pyridin-2-yl]piperazin-1-yl}sulfonyl)-2,1,3-benzoxadiazole], the pIC50 in experiment [7] was 4.70 to 6.00; in [1] (3pt, read-out: A549 3pt), at most 4.70; in experiment [1] (6pt, read-out: A549 6pt) it was 4.70 to 6.00; in [2] (setting [12]) it was at most 4.70; in experiment [2] (setting [13]) it was over 6.00; in [6], over 6.00.

Consider `Cc1cccc(N2CCN(S(=O)(=O)c3ccc(Cl)c4nonc34)CC2)n1` [compound 194, 4-chloro-7-{[4-(6-methylpyridin-2-yl)piperazin-1-yl]sulfonyl}-2,1,3-benzoxadiazole], for which the pIC50 in experiment [7] was at most 4.70; in [1] (3pt, read-out: A549 3pt), at most 4.70; in experiment [1] (6pt, read-out: A549 6pt), at most 4.70; in experiment [2] (setting [12]), 4.70 to 6.00; in experiment [2] (setting [13]), at most 4.70; in experiment [6], over 6.00.

On to `CC1CN(S(=O)(=O)c2c(Cl)ccc3nonc23)CC(C)O1` (stereo not drawn) [compound 204, 5-chloro-4-[(2,6-dimethylmorpholin-4-yl)sulfonyl]-2,1,3-benzoxadiazole], for which the pIC50 was at most 4.70 in experiment [7]; 4.70 to 6.00 in experiment [1] (3pt, read-out: A549 3pt); at most 4.70 in experiment [1] (6pt, read-out: A549 6pt); over 6.00 in [2] (setting [12]); over 6.00 in experiment [2] (setting [13]); over 6.00 in experiment [3]. The pIC50 in experiment [4] (setting [14]) was 4.70 to 6.00; in experiment [5], 4.70 to 6.00; in experiment [6], over 6.00.

With `O=S(=O)(Nc1ccc2[nH]ncc2c1)c1ccc(Cl)c2nonc12` [compound 218, 7-chloro-N-1H-indazol-5-yl-2,1,3-benzoxadiazole-4-sulfonamide], the pIC50 in [7] is at most 4.70; in experiment [1] (3pt, read-out: A549 3pt), at most 4.70; in [1] (6pt, read-out: A549 6pt) it was at most 4.70; in [2] (setting [12]), 4.70 to 6.00; in experiment [2] (setting [13]) it was 4.70 to 6.00; in experiment [3], 4.70 to 6.00. Further, the pIC50 in experiment [4] (setting [14]), in experiment [5] and in [6] was 4.70 to 6.00 throughout.

As for `O=S(=O)(Nc1ccc2cn[nH]c2c1)c1c(Cl)ccc2nonc12` [compound 219, 5-chloro-N-1H-indazol-6-yl-2,1,3-benzoxadiazole-4-sulfonamide], the pIC50 in experiment [7] is 4.70 to 6.00; in experiment [1] (3pt, read-out: A549 3pt), 4.70 to 6.00; in experiment [1] (6pt, read-out: A549 6pt), at most 4.70; in experiment [2] (setting [12]) it was 4.70 to 6.00; in experiment [2] (setting [13]), over 6.00; in experiment [10] it was 4.70 to 6.00. Besides, the pIC50 was over 6.00 in experiment [3]; over 6.00 in experiment [4] (setting [14]); over 6.00 in experiment [4] (HCT-116, 9pt, read-out: HCT116 9pt); at most 4.70 in [5]; over 6.00 in experiment [11]; over 6.00 in experiment [6].
